The results in this text go back to patent US8629242B2, “Methods of inhibiting calcineurin with ApoE analogs” (Cognosci, Inc., priority 2007, dated 2014).

Assay [1] addresses T1, calcineurin (PP2B) (Homo sapiens, UniProt Q08209).
T1 construct: from tissue; host or cells: human brain lysate
The experiment in a line: Immunoprecipitation with biotin-COG 133 conjugate, blot probed for calcineurin. The format is binding. Particulars: human brain lysate or primary glial culture; biotin-COG 133 bead conjugate. How it is done: FIG. 14. ApoE analogs bind directly to calcineurin and inhibit its activity. […] (B) Immunoprecipitation of human brain lysate with a biotin-COG 133 conjugate. Lane 1=markers; lane 2=clear bead; lane 3=biotin-COG 133 bead conjugate; and lane 4=10 μg lysate. (C) Immunoprecipitation of different glial cultures with a biotin-COG 133 conjugate. Lane 1=markers; lane 2=astrocyte; lane 3=microglia; and lane 4=oligodendrocyte precursor cells (OPC). Blots in B and C were probed for calcineurin (PP2B).
Calcineurin activity was measured in a cell-free in vitro assay in the presence of various concentrations of COG 133 (SEQ ID NO: 1), COG 112 (SEQ ID NO: 5), COG 68 (SEQ ID NO: 7), COG 125 (Ac-AS(Aib)LRKL(Aib)KR—COOH; SEQ ID NO: 8), or antennapedia (antp), the prefix peptide for COG 112. […] Using a BioMol Calcineurin Phosphatase Activity Kit (Cat. #AK-804), the assay was conducted according to manufacturer's instructions. […] This inhibition of calcineurin activity by ApoE analogs is mediated by a direct interaction of the ApoE analog with the phosphatase.

The subject of assay [2] is enriched OPCs. Briefly: OPC proliferation (BrdU) in enriched OPC culture. It counts as cell-based, rat. Particulars: 1 μM, three days in proliferation medium. How it is done:
FIG. 10. ApoE analog promotes proliferation of OPCs in culture. Cultures enriched in OPCs were grown in proliferation media containing BrdU in the presence and absence of 1 μM COG 112 or a peptide control. Cells were subsequently labeled with Hoescht stain to detect nuclei, a BrdU antibody to detect proliferating cells, and an A2B5 antibody to identify OPCs (left panel). The number of cells per field were counted for each condition (right panel). In graph, the Hoescht bars correspond to the total number of A2B5^+/Hoescht^+ cells, while the BrdU bars correspond to […] cells.
Enriched OPCs were collected by shaking a primary culture of P2 rat pup brain. Proliferation medium containing COG 112 (1 μM), BrdU (20 μM), 10 ng/mL FGF and PDGF was added to the enriched OPC cultures. After three days in culture, cells were stained with Hoescht stain to show nuclei, a BrdU antibody to identify proliferating cells, and an A2B5 antibody to identify OPCs (FIG. 10). Antennapedia, the prefix peptide of COG 112, was used as a control.

For assay [3], the system named is 175 kdyn contusive spinal cord injury. Briefly: Contusive spinal cord injury. It counts as in vivo, Sprague-Dawley rats. Particulars: 1 mg/kg. How it is done: FIG. 12. COG 112 reduces the size of the lesion in white matter after spinal cord injury by inhibition of microglia activation. Rats received 175 kdyn contusive spinal cord injury and subsequent treatment with saline or COG 112 starting immediately after injury for 1 week. The injured area and spared white matter from the injured spinal cord were evaluated and quantified by luxol fast blue (LFB) staining area (top left panel). Activation of microglia was examined by staining adjacent sections with an ED1 antibody (bottom left panel). […] Scale bar=1000 μm. Similar to MS, spinal cord injury (SCI) is another devastating neurological disorder manifested as massive demyelination in the white matter of the spinal cord and extensive microglial activation surrounding the injured site. To examine the therapeutic effect of ApoE analogs on spinal cord injury, COG 112 (SEQ ID NO: 5) was administered to rats immediately after a contusive spinal cord injury. […] The second dose of COG 112 or vehicle was given i.v. 5 hours later followed by daily i.p. doses for 7 days. The animals were sacrificed on day 7 and the spinal cord spanning the injured site was subjected to histological examination. The injured area and spared white matter of the spinal cord were evaluated by Luxol Fast blue (LFB) staining. Activation of microglia was examined by staining adjacent sections with an antibody to ED1. […] Most impressively, about 50% of spared tissue remained at the epicenter of COG 112-treated animals, while only 15% remained in control animals. […] The microglia surrounding the injured spinal cord were robustly activated as shown by ED1-immunoreactivity 7 days after contusion (FIG. 12, bottom panels).

Assay [4] concerns sciatic nerve crush. Briefly: Sciatic nerve crush model. The format is in vivo, C57BL/6J male mice. The following applies: 1 mg/kg i.p. daily. How it is done:
FIG. 13. COG 112 attenuates axonal neurodegeneration and promotes functional recovery after sciatic nerve crush. C57BL mice were subjected to sciatic nerve crush on left hindlimb using a number 5 jeweler's forceps. The animals received lactated Ringer's buffer or COG 112 (1 mg/kg) by i.p. 2 hr after crush followed by daily dose for 14 days. (A) To assess functional deficits after nerve crush, footprints were recorded and the Sciatic Functional Index (SFI) was calculated. […] Treatment with COG 112 also robustly augmented the mRNA expression of peripheral myelin marker P0 (B) and axonal regeneration marker GAP43 (C) quantified by real-time PCR. **P<0.01; P<0.001. (D) On day 4 after injury, the sciatic nerves were dissected and stained with FD NeuroSilver kit to reveal degenerating axons manifested as dotted lines as depicted in the schematic above the micrographs.
We used a sciatic nerve crush model to investigate whether ApoE analogs can prevent functional loss and/or promote functional recovery after nerve injury. C57BL/6J male mice were anesthetized and the sciatic nerve on left hindlimb was crushed with Number 5 Jeweler's forceps at mid-thigh level for 30 seconds. The animals were then randomly assigned to receive either COG 112 (1 mg/kg, i.p.) or lactated Ringer's buffer two hours after crush followed by daily dose for 14 days. On day 4, two animals from each group were sacrificed and crushed sciatic nerves were dissected and silver stained using a FD NeuroSilver® staining kit to reveal degenerating axons.
On day 7 and 14, footprints for each animal were taken for quantitative assessment of hindlimb motor function. A Sciatic Functional Index (SFI), which takes into account the relationship between toes and feet of an animal's hindlimb, was calculated for each animal as previously described (Bain et al. (1989) Plast. Reconstr. Surg., Vol. 83(1):129-38). SFI values of zero and […] indicate normal and complete dysfunction, respectively.
In order to examine the effect of COG 112 on remyelination and regeneration of axons, segments of sciatic nerves spanning the crushed sites were dissected and collected on day 3, 7 and 14 for examination of P0, a marker of peripheral myelination, and growth associated protein 43 (GAP43), a marker of axonal regeneration, mRNA by real time PCR.

In the case of `CC(=O)N[C@@H](CC(C)C)C(=O)N[C@@H](CCCNC(=N)N)C(=O)N[C@H](C(=O)N[C@@H](CCCNC(=N)N)C(=O)N[C@@H](CC(C)C)C(=O)N[C@@H](C)C(=O)N[C@@H](CO)C(=O)N[C@@H](Cc1c[nH]cn1)C(=O)N[C@@H](CC(C)C)C(=O)N[C@@H](CCCNC(=N)N)C(=O)N[C@@H](CCCCN)C(=O)N[C@@H](CC(C)C)C(=O)N[C@@H](CCCNC(=N)N)C(=O)N[C@@H](CCCCN)C(=O)N[C@@H](CCCNC(=N)N)C(=O)N[C@@H](CC(C)C)C(=O)N[C@@H](CC(C)C)C(N)=O)C(C)C` [COG 133], in assay [1], the “binding of calcineurin (PP2B) in immunoprecipitates” value is “bound”.

Consider “Ac-RQIKIWFQNRRMKWKKCLRVRLASHLRKLRKRLL-NH2 [COG 112]”, for which the “number of A2B5+/BrdU+ cells” value in assay [2] is given as “significantly increased”. For the same compound, the “ED1 immunoreactive area in the injured spinal cord (microglia activation)” value in assay [3] (7 days after contusion) is “dramatically decreased”. Moreover, the “spared tissue remaining at the epicenter” value in assay [3] (day 7, control animals 15%) is on record as “about 50%”. In addition, in assay [3] (day 7, epicenter to 2.4 mm rostral or caudal, vs saline), the “percentage of spared white matter to total spinal cord area” value is “significantly higher”. In assay [4] (2 weeks), the “expression of GAP43 mRNA (real time PCR)” value is reported as “robustly increased” and the “expression of P0 mRNA (real time PCR)” value was “robustly increased”. Also, the “functional recovery (Sciatic Functional Index)” value in assay [4] (2 weeks, vs vehicle, P<0.001) was “significantly improved functional recovery”. In addition, the “axonal degeneration (silver staining)” value in assay [4] (day 4) was “significantly reduced axonal degeneration”.
